Experimental data taken from US10272110B2, “Methods for promoting HSC engraftment” (CHILDREN'S MEDICAL CENTER CORPORATION, priority 2006, dated 2019).
Where two headings read alike, the source gives them in different places.

Assays:
runx1/cmyb+ AGM HSCs = conditions: for Effect on HSC expression (# embryos altered/# embryos scored): runx1/cmyb+ HSCs, zebrafish embryos
Procedure: A chemical genetic screen was conducted to identify novel pathways that modulate definitive HSC formation during zebrafish embryogenesis. FIG. 1. Genes such as runx1 and cmyb, required for HSC development during mammalian hematopoiesis, are expressed in the ventral wall of the dorsal aorta in a region analogous to the mammalian AGM at thirty-six hours post-fertilization (hpf). […] Wild-type embryos were incubated with individual compounds from the three-somite stage until thirty-six hpf. Probes for runx1 and cmyb were combined and utilized to detect HSCs by in situ hybridization.
Wild-type age-matched embryos were arrayed into 48-well plates (˜5 embryos/well) of individual test compounds and exposed from 3-somites until 36 hpf. […] In situ hybridization for runx1 and cmyb was performed to assess HSCs. Compounds were retested at 10 μM, 20 μM, and 50 μM. Stem cell specificity was assessed using flk1 at 36 hpf. PGE2, PGI2, dmPGE2 and all cox inhibitors (Sigma) were used at 10 μM to 20 μM.
Qualitative scoring (# embryos with altered HSCs/# scored) of runx1/cmyb was conducted using the following criteria: Normal/unchanged=continuous line of runx1/cmyb+ endothelial cells and occasional hematopoietic clusters. Decreased/absent=reduction in runx1/cmyb+ cells, including the presence of large gaps in the line of HSCs, isolated positive cells, or absence of expression. Increased/excess=enhancement in runx1/cmyb^+ cells, including many HSC clusters, a thickened line of HSCs, or ectopic expression.

vasculature (flk1) = conditions: zebrafish embryos, 36 hpf
Procedure: Wild-type age-matched embryos were arrayed into 48-well plates (˜5 embryos/well) of individual test compounds and exposed from 3-somites until 36 hpf. Three compound libraries were utilized: NINDS Custom Collection (1040), SpecPlus Collection (960) and BIOMOL ICCB Known Bioactives (480). […] In situ hybridization for runx1 and cmyb was performed to assess HSCs. Compounds were retested at 10 μM, 20 μM, and 50 μM. Stem cell specificity was assessed using flk1 at 36 hpf. PGE2, PGI2, dmPGE2 and all cox inhibitors (Sigma) were used at 10 μM to 20 μM.

[1] = system: CFU-S from murine bone marrow cells; experiment: Murine colony-forming units-spleen (CFU-S); type: in vivo, mouse; conditions: CFUS12, WBM treated ex vivo
Procedure: Two independent BM samples were treated (n=5/treatment×2 replicates) for each variable. Recipient mice were lethally irradiated with a split dose of 10 Gy. 6×10^4 unfractionated dmPGE2 or control-treated BM cells were injected retro-orbitally into irradiated recipient mice. Spleens were dissected on day eight or twelve, weighed and fixed with Bouin's solution; hematopoietic colonies per spleen were counted. 1×10^5 cells/recipient were transplanted after treatment with the cox inhibitors. FACS sorted ckit^+sca1^+lineage^− BM cells were treated as above and transplanted at a dose of either 100 cells/recipient or 300 cells/recipient.

[2] = system: peripheral blood and bone marrow WBC; experiment: 5-Fluorouracil bone marrow injury; type: in vivo, mouse; conditions: in vivo exposure, IP, 1 mg/kg
Procedure: Mice were treated with 5-FU (150 mg/kg) as described. Venezia et al., 2004. […] Peripheral blood was obtained on day seven and day fourteen, quantified and subjected to multilineage FACS analysis using antibodies (eBioscience) to B220/IgM (B-lymphoid), CD4/8 (T-lymphoid), Mac1/Gr1 (myeloid), Ter119/CD71 (erythroid) and ckit/sca1 (stem/progenitor). Mice were sacrificed on day 16, and bone marrow was isolated, quantified and analyzed by FACS.

[3] = system: kidney marrow (KM) hematopoietic lineages; experiment: Kidney marrow irradiation recovery assay in adult zebrafish; conditions: 10 μM, irradiated adult zebrafish
From the text: Wild-type fish were sublethally irradiated, exposed to dmPGE2, and evaluated for kinetics of KM recovery by FACS 11 (FIG. 4A).
Adult zebrafish were exposed to 23 Gy of γ-irradiation. […] Whole KM isolated on days 0, 2, 4, 7, 10, 14 was subjected to FSC/SSC FACS analysis to identify hematopoietic lineages (n=5/treatment×3 replicates).

[4] = exposure from three somites to 36 hpf, runx1/cmyb staining

For CCCCC[C@H](O)/C=C/C=C\CCCCCCCC(=O)O [13(S)-HODE], the “Effect on HSC expression (# embryos altered/# embryos scored)” value (shortened to “Effect on HSC expression”) (runx1/cmyb+ AGM HSCs; Table 1, 36 hpf) was “Increase (15/25)”.
O=S(=O)(NCCNC/C=C/c1ccc(Br)cc1)c1cccc2cnccc12 [H89] was tested, and the “effect on AGM HSCs in zebrafish embryos (in words)” value (“effect on AGM HSCs” below) (runx1/cmyb+ AGM HSCs; [4]) was “inhibit HCS”.
With O=C1Cc2c([nH]c3ccc(Br)cc23)-c2ccccc2N1 [Kenpaullone] the “effect on AGM HSCs” value (runx1/cmyb+ AGM HSCs; [4]) was “inhibit HCSs”.
For N#CC(=C(/N)Sc1ccccc1N)/C(C#N)=C(\N)Sc1ccccc1N [U0126], the “effect on AGM HSCs” value (runx1/cmyb+ AGM HSCs; zebrafish, in vivo) was “inhibit HCS”.
For CC(C)NCC(O)COc1ccc(CC(N)=O)cc1 (stereo not drawn) [Atenolol], the “effect on AGM HSCs” value (runx1/cmyb+ AGM HSCs; [4]) was “heightened production of AGM stem cells”.
With C[C@]12CC[C@H]3[C@@H](CC[C@]4(O)C[C@@H](O)CC[C@]34C=O)[C@@]1(O)CC[C@@H]2C1=CC(=O)OC1 [Strophanthidin] the “effect on AGM HSCs” value (runx1/cmyb+ AGM HSCs; [4]) was “increases AGM stem cells”.
For CCCCC/C=C\C/C=C\CCCCCCCC(=O)O [Linoleic Acid], the “effect on vasculature / flk1 staining (in words)” value (vasculature (flk1)) was “remained relatively unchanged”, the “Effect on HSC expression” value (runx1/cmyb+ AGM HSCs; Table 1, 36 hpf) was “Increase (22/30)” and the “effect on AGM HSCs” value (runx1/cmyb+ AGM HSCs; [4]) was “upregulated HSC formation”.
[Cl-].[Li+] [lithium chloride] was tested, and the “effect on AGM HSCs” value (runx1/cmyb+ AGM HSCs; [4]) was “HSC enhancers”.
CCCCCC1OC1C/C=C\C/C=C\C/C=C\CCCC(=O)O (stereo not drawn) [Epoxyeicosatrienoic Acid] was tested, and the “Effect on HSC expression” value (runx1/cmyb+ AGM HSCs; Table 1, 36 hpf) was “Increase (17/25)”.
CC1=C(CC(=O)O)c2cc(F)ccc2/C1=C\c1ccc([S+](C)[O-])cc1 (stereo not drawn) [Sulindac] was tested, and the “Effect on HSC expression” value (runx1/cmyb+ AGM HSCs; Table 2, 36 hpf) was “Decrease (18/31)”.
In the case of CCCCC[C@H](O)/C=C/[C@@H]1[C@@H](C/C=C\CCCC(=O)O)[C@@H](O)C[C@H]1O [PGF2], the “effect on AGM HSCs” value (runx1/cmyb+ AGM HSCs; [4]) was “no effect”.
CC(=O)Oc1ccccc1C(=O)O [Aspirin] was tested, and the “effect on AGM HSCs” value (runx1/cmyb+ AGM HSCs; [4]) was “reduced stem cells in the aorta”.
CCCCCCCC/C=C\C/C=C\C/C=C\CCCC(=O)O [Mead Acid] was tested, and the “Effect on HSC expression” value (runx1/cmyb+ AGM HSCs; Table 1, 36 hpf) was “Increase (24/32)” and the “effect on AGM HSCs” value (runx1/cmyb+ AGM HSCs; [4]) was “upregulated HSC formation”.
For CC(C)Cc1ccc(C(C)C(=O)O)cc1 (stereo not drawn) [Ibuprofen], the “effect on AGM HSCs” value (runx1/cmyb+ AGM HSCs; [4]) was “reduced stem cells in the aorta”.
CCCC(CCC)C(=O)O [Valproic Acid] was tested, and the “effect on AGM HSCs” value (runx1/cmyb+ AGM HSCs; [4]) was “inhibit HCSs”.
COc1ccc2cc([C@H](C)C(=O)O)ccc2c1 [Naproxen] was tested, and the “effect on AGM HSCs” value (runx1/cmyb+ AGM HSCs; [4]) was “reduced stem cells in the aorta”.
In the case of CCCCC[C@H](O)/C=C/[C@H]1C(=O)C=C[C@@H]1C/C=C\CCCC(=O)O [Prosteglandin J2], the “Effect on HSC expression” value (runx1/cmyb+ AGM HSCs; Table 2, 36 hpf) was “Decrease (12/22)”.
With CS(=O)(=O)Nc1ccc([N+](=O)[O-])cc1OC1CCCCC1 [NS398] the “CFUS activity under selective cox inhibition” value [1] was “significantly alter CFUS activity”, the “peripheral blood (day 14) and bone marrow (day 16) WBC counts after 5-FU injury” value [2] was “significantly inhibited WBC recovery” and the “survival of irradiated fish to day fourteen” value [3] was “excessive death”. The “decreased runx1/cmyb+ HSCs (# embryos altered/# scored)” value (runx1/cmyb+ AGM HSCs; 20 μM, 36 hpf) was 35/44 and the “effect on AGM HSCs” value (runx1/cmyb+ AGM HSCs; [4]) was “reduced stem cells in the aorta”.
For Cc1ccc(-c2cc(C(F)(F)F)nn2-c2ccc(S(N)(=O)=O)cc2)cc1 [Celecoxib], the “decreased runx1/cmyb+ HSCs (# embryos altered/# scored)” value (runx1/cmyb+ AGM HSCs; 20 μM, 36 hpf) was 26/31.
With CCCCCCOC(=O)[C@]1(O)C[C@@H]2O[C@@]1(C)n1c3ccccc3c3c4c(c5c6ccccc6n2c5c31)C(=O)NC4 [KT5720] the “effect on AGM HSCs” value (runx1/cmyb+ AGM HSCs; [4]) was “inhibit HCS”.
In the case of O=C(O)CCC(=O)c1ccc(-c2ccccc2)cc1 [Fenbufen], the “Effect on HSC expression” value (runx1/cmyb+ AGM HSCs; Table 2, 36 hpf) was “Decrease (20/26)” and the “effect on AGM HSCs” value (runx1/cmyb+ AGM HSCs; [4]) was “decreased HSCs”.
COc1cccc(-c2cc(=O)c3ccccc3o2)c1N [PD9805] was tested, and the “effect on AGM HSCs” value (runx1/cmyb+ AGM HSCs; [4]) was “inhibit HCS”.
For CCCCC[C@H](O)/C=C/[C@@H]1[C@H]2C/C(=C/CCCC(=O)O)O[C@H]2C[C@H]1O [PGI2], the “increased runx1/cmyb expression (# embryos altered/# scored)” value (runx1/cmyb+ AGM HSCs; 20 μM, 36 hpf) was 28/47 and the “effect on AGM HSCs” value (runx1/cmyb+ AGM HSCs; [4]) was “increase moderately”.
With O=C1Nc2cc(Br)ccc2/C1=C1/Nc2ccccc2/C1=N\O [BIO] the “effect on AGM HSCs” value (runx1/cmyb+ AGM HSCs; [4]) was “HSC enhancers”.
CCCCC[C@H](O)/C=C/[C@H]1[C@H](O)CC(=O)[C@@H]1C/C=C/CCCC(=O)O (relative stereo) [5-trans PGE2] was tested, and the “toxicity in zebrafish embryo screen” value (runx1/cmyb+ AGM HSCs; Table 4) was “toxic”.
CCCc1c(OCCCCc2nnn[nH]2)ccc(C(C)=O)c1O [Ly-171883] was tested, and the “Effect on HSC expression” value (runx1/cmyb+ AGM HSCs; Table 1, 36 hpf) was “Increase (17/26)”.
With CCCCC1(COC(=O)CCC(=O)O)C(=O)N(c2ccccc2)N(c2ccccc2)C1=O [Suxibuzone] the “Effect on HSC expression” value (runx1/cmyb+ AGM HSCs; Table 2, 36 hpf) was “Decrease (16/30)”.
